# Assay results as given in patent US20230218714A1, “DIAGNOSTICS AND USE OF QUORUM SENSING MOLECULES IN MUSCLE WASTING” (Universiteit Gent, priority 2019, published 2023).
# Entries after “also recorded” stand apart in the source; their conditions may differ. Where no end group is shown, it is not given here.
# Key:
# [1] = test system: IL-6 production by C2C12 myotubes; assay: IL-6 production by C2C12 myotubes (sandwich ELISA); assay type: cell-based, mouse; settings: for Effect: inflammation (IL-6 production, hit direction): screening at 1 μM
# Description: C2C12 myoblasts (2.5×10^4 cells/well) were seeded in 96-well plates and incubated until they reached 80% confluency, after which the proliferation medium was removed and replaced by differentiation medium. After 6 days of incubation with daily renewed differentiation medium, the cells were treated with 1 μM of QSM, placebo or positive control (LPS) for 24 hours. IL-6 levels were determined in the supernatants using a sandwich ELISA (eBioscience), using IL-6 capture antibody, blocking solution, samples and standards, IL-6 detection antibody, avidin-horseradish peroxidase and substrate solution which were added sequentially, with washing steps in between. After stopping the reaction with H2SO4 solution, the absorbance was measured at 450 nm and 570 nm (correction wavelength) using a microplate reader (ThermoLab Systems). Concentrations were determined using the standard curves generated with known concentrations of IL-6.
# Several pro-inflammatory cytokines are elevated in sepsis, cancer, ageing and other catabolic diseases. They are thought to trigger muscle wasting (partly) through NF-kB pathways. […] In these screening experiments, the effects of QSM on myotube IL-6 production were assessed using a sandwich ELISA.
# In a further set of experiments, using similar methods as described for the screening experiments, a number of QSPs were tested for a dose response relation in C2C12 cells.
# [2] = test system: GDF15 production by C2C12 myotubes; assay: GDF15 production by C2C12 myotubes (sandwich ELISA), mitochondrial changes; assay type: cell-based, mouse; settings: for GDF15 secretion, effect relative to median: QSM 1 μM, C2C12 myotubes; for Effect: GDF15 (hit direction): screening at 1 μM
# Description: GDF15 levels were determined in the supernatants of C2C12 cells after QSM, placebo or positive control (oligomyin) treatment, using a sandwich ELISA (R&D Systems). A similar protocol as described for the IL-6 determination was used.
# GDF15 is considered a useful biomarker for direct or indirect changes in mitochondrial function. Moreover, GDF15 is implicated in muscle wasting diseases like sarcopenia, chronic obstructive pulmonary disease cachexia and critical illness.
# [3] = test system: C2C12 myoblasts; assay: MTT cell viability assay in C2C12 myoblasts; settings: for Effect: viability (hit direction): screening at 1 μM, hit selection by MAD/quartile/SSMD/robust SSMD
# Description: The mouse myoblast C2C12 cell line (ATCC, CRL-1772) was cultured at 37° C. in a 5% CO2 humidified incubator in Dulbecco's modified Eagle medium (DMEM; Thermo Fisher Scientific). For C2C12 cell proliferation, the medium was supplemented with 10% fetal bovine serum (FBS; Thermo Fisher Scientific), 100 units/ml penicillin, and 100 μg/ml streptomycin (1% Pen/Strep; Thermo Fisher Scientific). The proliferation medium was renewed each 2-3 days and confluency was kept below 80%. For differentiation of the C2C12 myoblasts into myotubes, proliferation medium was replaced by differentiation medium when cells reached 80% confluency.
# Viability of QSM was assessed using the 3-(4,5-dimethylthiazol-2-yl)-2,5-diphenyltetrazolium bromide (MTT) assay. Briefly, C2C12 myoblasts were seeded in a 96-well plate (3×10^4 cells/well). 24 hours post-seeding, the wells were treated with QSM (1 μM), placebo or positive control (DMSO 2%) and incubated for 24 hours at 37° C. Next, 20 μL of MTT reagent (5 mg/mL; Sigma-Aldrich) was added to each well and the plates were returned to the incubator for 2.5 hours. After incubation, supernatant was removed from the wells and 150 μL of DMSO was added to release and dissolve the formazan crystals. Absorbance was measured at 570 nm using a microplate reader (Thermo Fisher).
# The MTT assay is a widely validated and accepted viability assay for screening experiments. In this assay, the reduction of MTT into formazan, catalysed by living cell enzymes, is used as a marker of cell viability. If QSM are cytotoxic or cytostatic towards C2C12 cells, a decrease in MTT reduction is expected (viability less than 100%), while an increased C2C12 proliferation caused by QSM will result in an increased MTT reduction (viability more than 100%).
# In a further set of experiments, the dose response effect of QSPs Q22 and Q184 was assessed on MTT reduction of C2C12 myotubes (tables 7.4 and 7.5).
# [4] = test system: C2C12 cells; assay: Co-treatment of C2C12 cells with QSP and ala-scan derivative, IL-6 response; assay type: cell-based, mouse; settings: for effect on Q055 mediated IL-6 induction: Q055 75 μM plus derivative 90 μM
# Description: Means±SEM, n=6. * P<0.05; ** P<0.01, *** P<0.001; paired Student's t test.
# [5] = test system: C2C12 myoblasts; assay: Differentiation of C2C12 myoblasts into myotubes (LADD stain, ImageJ); assay type: cell-based, mouse; settings: for differentiation capacity relative to the median of all samples: QSM 1 μM at d0 and d3, myotube formation at d6; for Effect: differentiation (hit direction): screening at 1 μM, myotube formation
# Description: Differentiation medium consisted of DMEM supplemented with 2% horse serum (HS; Thermo Fisher Scientific) and 1% Pen/Strep. All experiments were done with C2C12 passage numbers below 30.
# C2C12 myoblasts (1×10^4 cells/well) were seeded in 48-well plates and incubated until they reached 80% confluency, after which the proliferation medium was removed and replaced by differentiation medium (d0). The differentiation medium was renewed at d3. QSM (1 μM), placebo or positive controls (vitamin D3) were added to the cells together with the differentiation medium at d0 and d3. After 6 days of incubation (d6), myotubes were stained with the combined nuclear and cytoplasmatic LADD Multiple Stain (as described in R. McColl, M. Nkosi, C. Snyman, C. Niesler, Analysis and quantification of in vitro myoblast fusion using the LADD Multiple Stain, Biotechniques 61(6) (2016) 323-326). LADD Multiple Stain is a solution containing toluidine blue (VWR) and basic fuchsin (Fluka) in 30% (v/v) ethanol. The stained myotubes were assessed under a phase-contrast microscope equipped with a camera (Olympus CKX53) at a total magnification of 100×. Five different images were taken per well. The amount of myotube formation was automatically quantified using ImageJ software.
# Mimicking the in vivo muscle physiology, C2C12 myoblasts are able to differentiate into myotubes when they are adjacent to each other and a differentiating extracellular medium is present. Muscle wasting diseases are characterized by a decreased myotube formation. To evaluate the effects of QSM on the differentiation capacities of C2C12 myoblasts, the C2C12 cells were treated in differentiation medium with QSM at d0 and d3, and evaluated the myotube formation at d6. At d6, the staining protocol of McColl et al. was used to visualize the myotubes (references see above). The differentiation capacity of all QSM was between 71% (Q013) and 145% (AI-2) relative to the median of all samples (FIG. 1).
# [6] = test system: human muscle cells; assay: IL-6 production dose response in human muscle cells; assay type: cell-based; settings: FIG. 12
# Description: Differentiation medium consisted of high glucose Glutamax DMEM supplemented with penicillin (100 units/ml), streptomycin (100 μg/ml) and insulin (10 μg/mL).
# Using similar methods as described for the C2C12 experiments, a number of QSPs were tested for a dose response relation in human muscle cells.
# [7] = test system: C. elegans; assay: C. elegans swimming behaviour (muscle wasting/aging model); assay type: in vivo; design: key to Wave initiation rate / Asymmetry / Stretch / Curling / Travel speed / Brush stroke / Activity index: relative to placebo set to 1.0; settings: DMSO positive control
# Description: The C. elegans model is a well-established aging model: they diminish in locomotory vigor as they age, a phenomenon that is attributed to a physical deterioration of muscle and synapses. QSPs were introduced in the medium of living C. elegans. As comparisons, a placebo experiment was used as negative control, while DMSO was used as positive control.
# Using automatic, objective imaging software, different swimming behaviour variables associated with this decrease in locomotory vigor or muscle wasting were investigated. Wave initiation rate, travel speed, brush stroke and activity index do decrease with muscle wasting, while body wave number, asymmetry, curling and stretch do increase with muscle wasting, as described in Restif et al., Plos Computational Biology, 2014.
# More in particular, the results in these tables show Q184-associated changes in three swimming parameters in wild-type adults at day 3 (Table 9) and day 12 (Table 10) (n=120-170 from 3 independent trials for each condition). Data presented are means±s.e.m (placebo set to 1.0).
# [8] = day 3, placebo set to 1.0, Q184 at 1 μM
# [9] = day 12, placebo set to 1.0, Q184 at 1 μM
compound,measurement,setting,value
YSPWTNF [Q007],"Effect: inflammation (IL-6 production, hit direction)",[1],increased IL-6 production; also recorded: ↑ inflammation
YSTCDFIM [Q148],"GDF15 secretion, effect relative to median",[2],80%
DSVCASYF [Q040],Effect: viability (hit direction),[3],decreasing viability hits
AKDEH [Q015],Effect: GDF15 (hit direction),[2],increased GDF15 production
same,Effect: viability (hit direction),[3],decreasing viability hits
ESRVSRIIADFLFQRKK (Synthetic QSP055-A9),effect on Q055 mediated IL-6 induction,[4],antagonistic effect
MKAEH [Q140],Effect: viability (hit direction),[3],increasing hits; also recorded: ↑ viability
AIFILAS [Q013],differentiation capacity relative to the median of all samples,[5],71%
SDLPFEH [Q164],Effect: viability (hit direction),[3],increasing hits; also recorded: ↑ viability
GLWEDILYSLNIIKHNNTKGLHHPIQL [Q101],Effect: viability (hit direction),[3],increasing hits; also recorded: ↑ viability
LPFEF [Q134],Effect: viability (hit direction),[3],decreasing viability hits
QNSPNIFGQWM [Q097],Effect: viability (hit direction),[3],decreasing viability hits
ESRVSRIILDFLFQRKK [Q055],"dose response relation, IL6 production",[6],Typical curves were obtained
same,Relative IL-6,[1]; concentration 0.20 μM,0.94
same,Relative IL-6,[1]; concentration 0.39 μM,1.07
same,Relative IL-6,[1]; concentration 1.56 μM,0.93
same,Relative IL-6,[1]; concentration 3.13 μM,1.24
same,Relative IL-6,[1]; concentration 6.25 μM,1.24
same,Relative IL-6,[1]; concentration 12.5 μM,3.60
same,Relative IL-6,[1]; concentration 25 μM,5.56
same,Relative IL-6,[1]; concentration 50 μM,8.94
same,Relative IL-6,[1]; concentration 100 μM,6.48
same,"Effect: inflammation (IL-6 production, hit direction)",[1],increased IL-6 production; also recorded: ↑ inflammation
MAGNSSNFIHKIKQIFTHR [Q138],Effect: viability (hit direction),[3],increasing hits; also recorded: ↑ viability
ERPVG [Q052],"Effect: inflammation (IL-6 production, hit direction)",[1],decreased the IL-6 production; also recorded: ↓ inflammation
same,Effect: viability (hit direction),[3],increasing hits; also recorded: increasing viability hit
NNWNN [Q019],Effect: differentiation (hit direction),[5],increased myotube formation; also recorded: ↑ differentiation
LFSLVLAG [Q132],Effect: viability (hit direction),[3],decreasing viability hits
DLRNIFLKIKFKKK [Q031],Effect: viability (hit direction),[3],decreasing viability hits
GSLSTFFALFNRSFTQALGK (Synthetic Q176-A9),effect on Q176 mediated IL-6 induction,[4]; Q176 50 μM plus derivative 60 μM,inhibiting the Q176 mediated IL-6 induction
ARNQT [Q018],Effect: viability (hit direction),[3],decreasing viability hits
ALILTLVS [Q017],Effect: viability (hit direction),[3],decreasing viability hits
SRVSAIILDFLFQRKK (Synthetic Q055-A6),effect on Q055 mediated IL-6 induction,[4],inhibited the Q055 mediated IL-6 induction
AGTKPQGKPASNLVECVFSLFKKCN [Q011],Effect: GDF15 (hit direction),[2],increased GDF15 production
same,Effect: viability (hit direction),[3],decreasing viability hits
"C[S+](C)[O-] [DMSO, dimethylsulfoxide, reference compound]",Activity index,[7]; [8],0.60
same,Asymmetry,[7]; [8],3.11
same,Body wave number,[7]; [8],2.04
same,Brush stroke,[7]; [8],0.68
same,Curling,[7]; [8],1.55
same,Stretch,[7]; [8],1.10
same,Travel speed,[7]; [8],0.85
same,Wave initiation rate,[7]; [8],0.58
same,Activity index,[7]; [9],0.31
same,Asymmetry,[7]; [9],2.50
same,Body wave number,[7]; [9],2.59
same,Brush stroke,[7]; [9],0.48
same,Curling,[7]; [9],0.08
same,Stretch,[7]; [9],0.91
same,Travel speed,[7]; [9],0.49
same,Wave initiation rate,[7]; [9],0.39
CCCC(O)CC(=O)N[C@H]1CCOC1=O (stereo partly shown) [3-OH-C6-HSL],Effect: viability (hit direction),[3],increasing hit; also recorded: ↑ viability
C[C@]12OC[C@H](O)[C@@]1(O)O[B-](O)(O)O2 [AI-2],differentiation capacity relative to the median of all samples,[5],145%
same,Effect: differentiation (hit direction),[5],increased myotube formation; also recorded: ↑ differentiation
same,"GDF15 secretion, effect relative to median",[2],216%
same,Effect: GDF15 (hit direction),[2],increased GDF15 production
same,Effect: viability (hit direction),[3],increasing both C2C12 viability and GDF15 production
FLVMFLSG [Q093],"GDF15 secretion, effect relative to median",[2],137%
same,Effect: GDF15 (hit direction),[2],increased GDF15 production
CCCCCC(=O)N[C@H]1CCOC1=O [C6-HSL],Effect: GDF15 (hit direction),[2],increased GDF15 production
"SRNAT [Q192, SRNAT]",viability relative to the median of all samples (MTT),"[3]; QSM 1 μM, 24 h, C2C12 myoblasts, n=2",120%
same,Effect: viability (hit direction),[3],strong increasing hit; also recorded: ↑ viability
ESRLPKIRFDFIFPRKK [Q054],relative IL-6 production,"[1]; QSM 1 μM, 24 h, relative to median of all QSM",51%
same,"Effect: inflammation (IL-6 production, hit direction)",[1],decreased the IL-6 production; also recorded: ↓ inflammation
GKAEF [Q099],"GDF15 secretion, effect relative to median",[2],80%
same,Effect: GDF15 (hit direction),[2],decreased the GDF15 production
DLRGVPNPWGWIFGR [Q030],Effect: viability (hit direction),[3],decreasing viability hits
